Experimental data taken from patent US10294237B2, “Bicyclic heterocyclic amide derivative” (Sumitomo Dainippon Pharma Co., Ltd., priority 2015, dated 2019).

Columns and labels:
HCT-116 cells [1] = test: Test for inhibiting sphere-forming ability of cancer cells; type: cell-based; conditions: HCT-116 spheres, non-adherent, serum-free, 4 days, CellTiter-Glo, read-out: IC50 (Sphere IC50 value; concentration for 50% inhibition of cell proliferation)
Description: (§1) The reliable methods established for measuring the self-renewal ability of cells which is one of the CSC's properties include a method for measuring the sphere-forming ability of cancer cells in non-adherent condition in the absence of serum (Cancer Res 65, 5506-5511 (2005)). HCT-116 cells were available from the American Type Culture Collection (ATCC). HCT-116 cells were cultured at 37° C. and 5% CO2 using the McCoy's 5a medium containing 10% fetal bovine serum (FBS) and 1% penicillin/streptomycin. HCT-116 cells were seeded in a 384 Well Black Clear Bottom Ultra-Low Attachment Microplate (Corning Cat. No. 3827) in an amount of 350-800 cells/well using the DMEM/F12 medium containing 2% B27 supplement (GIBCO), 20 ng/mL epidermal growth factor (EGF) (peprotech), 10 ng/mL basic fibroblast growth factor (bFGF) (peprotech), 5 μg/mL insulin (Sigma), and 1% penicillin/streptomycin. The test compounds were added into each well to adjust the final concentration of DMSO to 0.1%, and the cells were cultured for 4 days. The number of viable cells in each well was then measured with CellTiter-Glo® Luminescent Cell Viability Assay (Promega) to calculate the concentration of each test compound for 50% inhibition of cell proliferation (Sphere IC50 value; μmol/L).
The experiment of Test Example 1 was performed for the compounds of each Example. The concentrations of each test compound for 50% inhibition of cell profeliration (Sphere IC50 value; μmol/L) are shown in the following Table.

HCT-116 cells [2] = test: Test for inhibiting sphere-forming ability of cancer cells (in the presence of BSA); type: cell-based; conditions: HCT-116 spheres, non-adherent, 5% BSA, 4 days, CellTiter-Glo, read-out: IC50 (Sphere IC50 value; concentration for 50% inhibition of cell proliferation)
Description: as §1, with “HCT-116” for “The reliable methods established for measuring the self-renewal ability of cells which is one of the CSC's properties include a method for measuring the sphere-forming ability of cancer cells in non-adherent condition in the absence of serum (Cancer Res 65, 5506-5511 (2005)). HCT-116”, “(Sigma), 5% bovine serum albumin (BSA),” for “(Sigma),”
The experiment of Test Example 2 was performed for the compounds of each Example. The concentrations of each test compound for 50% inhibition of cell profeliration (Sphere IC50 value; μmol/L) are shown in the following Table.

Compound	IC50 (HCT-116 cells [1]) [nM]	IC50 (HCT-116 cells [2]) [nM]	IC50 (HCT-116 cells [1]; Homo sapiens, 96 h) [nM]	IC50 (HCT-116 cells [2]; Homo sapiens, HCT-116, 96 h) [nM]
N#Cc1cccc(Cn2cnc(NC(=O)c3ccc4c(c3)CCNC4)c2)c1 [Example 88]	5030	950	–	–
O=C(Nc1cn(Cc2cccc(F)c2)cn1)c1cnc2c(c1)CCNC2 [Example 120]	80	70	–	–
O=C(Nc1cn(Cc2ccc(C(F)(F)F)cc2)cn1)c1cnc2c(c1)CCNC2 [Example 64, N-{1-[4-(trifluoromethyl)benzyl]-1H-imidazol-4-yl}-5,6,7,8-tetrahydro-1,7-naphthyridine-3-carboxamide]	–	–	90	170
O=C(/C=C/c1ccc2c(c1)OCO2)Nc1cn(Cc2cccc(Cl)c2)cn1 [Example 38]	–	–	70	90
O=C(Nc1cn(CCC2CCCCC2)cn1)c1cnc2c(c1)CCNC2 [Example 56]	70	160	–	–
O=C(Nc1cn(Cc2cc(F)cc(F)c2)cn1)c1ccc2c(c1)CCNC2 [Example 74]	490	490	–	–
O=C(Nc1cn(Cc2ccc(Cl)c(F)c2)cn1)c1ccc2c(c1)CCNC2 [Example 90, N-[1-(4-chloro-3-fluorobenzyl)-1H-imidazol-4-yl]-1,2,3,4-tetrahydroisoquinoline-6-carboxamide]	–	–	70	100
Cc1ccc(Cn2cnc(NC(=O)c3ccc4c(c3)CCNC4)c2)cc1 [Example 81]	950	6220	–	–
O=C(Nc1cn(Cc2ccc3c(c2)OCO3)cn1)c1cnc2c(c1)CCNC2 [Example 119]	730	630	–	–
O=C(Nc1cn(Cc2cc(F)cc(Cl)c2)cn1)c1ccc2c(c1)CCNC2 [Example 91, N-[1-(3-chloro-5-fluorobenzyl)-1H-imidazol-4-yl]-1,2,3,4-tetrahydroisoquinoline-6-carboxamide]	–	–	70	80
COc1cccc(Cn2cnc(NC(=O)c3ccc4c(c3)CCNC4)c2)c1 [Example 78]	560	560	–	–
O=C(Nc1cn(Cc2cc(Cl)cc(OC(F)(F)F)c2)cn1)c1ccc2c(c1)CCNC2 [Example 100, N-{1-[3-chloro-5-(trifluoromethoxy)benzyl]-1H-imidazol-4-yl}-1,2,3,4-tetrahydroisoquinoline-6-carboxamide]	–	–	60	70
O=C(Nc1cn(CC2CCCCC2)cn1)c1ccc2c(c1)CCNC2 [Example 85]	610	590	–	–
O=C(Nc1cn(Cc2cccc(Cl)c2)cn1)c1ccc2c(n1)CCNC2 [Example 44]	–	–	780	580
O=C(Nc1cn(CCCc2ccccc2)cn1)c1cnc2c(c1)CCNC2 [Example 69]	760	680	–	–
O=C(Nc1cn(Cc2cc(Cl)cc(Cl)c2)cn1)c1ccc2c(c1)CCNC2 [Example 101, N-[1-(3,5-dichlorobenzyl)-1H-imidazol-4-yl]-1,2,3,4-tetrahydroisoquinoline-6-carboxamide]	–	–	70	60
O=C(Nc1cn(Cc2cc(F)cc(C(F)(F)F)c2)cn1)c1ccc2c(c1)CCNC2 [Example 99, N-{1-[3-fluoro-5-(trifluoromethyl)benzyl]-1H-imidazol-4-yl}-1,2,3,4-tetrahydroisoquinoline-6-carboxamide]	–	–	60	60
CN(C)c1cccc(Cn2cnc(NC(=O)c3ccc4c(c3)CCNC4)c2)c1 [Example 105]	–	–	5900	5120
O=C(Nc1cn(Cc2cccc(Cl)c2)cn1)c1cnc2c(c1)CCNC2 [Example 43]	–	–	720	540
O=C(Nc1cn(Cc2ccccc2)cn1)c1cnc2c(c1)CCNC2 [Example 59]	610	370	–	–
O=C(Nc1cn(Cc2ccc(Cl)c(F)c2)cn1)c1cnc2c(c1)CCNC2 [Example 51, N-[1-(4-chloro-3-fluorobenzyl)-1H-imidazol-4-yl]-5,6,7,8-tetrahydro-1,7-naphthyridine-3-carboxamide]	–	–	60	50
O=C(Nc1cn(Cc2ccc(Cl)cc2)cn1)c1cnc2c(c1)CCNC2 [Example 65, N-[1-(4-chlorobenzyl)-1H-imidazol-4-yl]-5,6,7,8-tetrahydro-1,7-naphthyridine-3-carboxamide]	–	–	80	380
O=C(Nc1cn(Cc2ccccc2F)cn1)c1cnc2c(c1)CCNC2 [Example 46]	750	440	–	–

Further lines, results first:

IC50 (HCT-116 cells [1]) [nM]	IC50 (HCT-116 cells [2]) [nM]	IC50 (HCT-116 cells [1]; Homo sapiens, 96 h) [nM]	IC50 (HCT-116 cells [2]; Homo sapiens, HCT-116, 96 h) [nM]	Compound
400	610	–	–	O=C(Nc1cn(Cc2ccc(OC(F)(F)F)cc2)cn1)c1ccc2c(c1)CCNC2 [Example 75]
–	–	80	90	O=C(Nc1cn(Cc2ccc(F)c(Cl)c2)cn1)c1ccc2c(c1)CCNC2 [Example 95, N-[1-(3-chloro-4-fluorobenzyl)-1H-imidazol-4-yl]-1,2,3,4-tetrahydroisoquinoline-6-carboxamide]
–	–	80	100	O=C(Nc1cn(Cc2cccc(C(F)(F)F)c2)cn1)c1ccc2c(c1)CCNC2 [Example 26]
–	–	70	90	O=C(Nc1cn(Cc2ccc(F)c(C(F)(F)F)c2)cn1)c1ccc2c(c1)CCNC2 [Example 92, N-{1-[4-fluoro-3-(trifluoromethyl)benzyl]-1H-imidazol-4-yl}-1,2,3,4-tetrahydroisoquinoline-6-carboxamide]
610	540	–	–	O=C(Nc1cn(Cc2ccc(F)c(F)c2)cn1)c1ccc2c(c1)CCNC2 [Example 73]
–	–	80	50	O=C(Nc1cn(Cc2cc(F)cc(F)c2)cn1)c1cnc2c(c1)CCNC2 [Example 47, N-[1-(3,5-difluorobenzyl)-1H-imidazol-4-yl]-5,6,7,8-tetrahydro-1,7-naphthyridine-3-carboxamide]
–	–	820	660	O=C(Nc1cn(Cc2cccc(Cl)c2)cn1)c1ccc2c(c1)CCNC2 [Example 45]
720	540	–	–	O=C(Nc1cn(Cc2ccc(C(F)(F)F)cc2)cn1)c1ccc2c(c1)CCNC2 [Example 83]
6810	5680	–	–	O=C(Nc1cn(CCCOc2ccccc2)cn1)c1cnc2c(c1)CCNC2 [Example 117]
–	–	500	510	COc1cc(Cn2cnc(NC(=O)c3ccc4c(c3)CCNC4)c2)cc(C(F)(F)F)c1 [Example 98]
600	580	–	–	O=C(Nc1cn(Cc2ccc(Cl)cc2)cn1)c1ccc2c(c1)CCNC2 [Example 87]
370	60	–	–	O=C(Nc1cn(Cc2ccc(F)cc2)cn1)c1cnc2c(c1)CCNC2 [Example 61]
550	490	–	–	O=C(Nc1cn(Cc2ccc(F)cc2)cn1)c1ccc2c(c1)CCNC2 [Example 79]
–	–	690	980	O=C(Nc1cn(Cc2cccc(C(F)(F)F)c2)cn1)c1ccc2c(c1)CCC(O)C2 (centres unmarked) [Example 111, 6-Hydroxy-N-{1-[3-(trifluoromethyl)benzyl]-1H-imidazol-4-yl}-5,6,7,8-tetrahydronaphthalene-2-carboxamide]
80	70	–	–	Cc1cccc(Cn2cnc(NC(=O)c3cnc4c(c3)CCNC4)c2)c1 [Example 121]
560	650	–	–	Cc1ccc(Cn2cnc(NC(=O)c3cnc4c(c3)CCNC4)c2)cc1 [Example 68]
–	–	660	490	O=C(Nc1cc2c(cc1F)CNCC2)c1cn(Cc2ccc(F)c(F)c2)cn1 [Example 2]
–	–	10	20	O=C(/C=C/c1ccc2c(c1)CCO2)Nc1cn(Cc2cccc(Cl)c2)cn1 [Example 41]
250	100	–	–	Cc1ccccc1Cn1cnc(NC(=O)c2cnc3c(c2)CCNC3)c1 [Example 60]
–	–	6990	6110	COc1cc(Cn2cnc(NC(=O)c3ccc4c(c3)CCNC4)c2)cc(OC)c1 [Example 94]
